Source: PubChem BioAssay AID180 (DTP/NCI, 2004)
Several values for one entry are separate records, joined by “and”; a condition that tells them apart may be missing. Equal values may be shown once.

Tested on: BDF1 mice, Adenocarcinoma 755 s.c., tumor weight T/C
Assay: NCI In Vivo Anticancer Drug Screen. Data for tumor model Adenocarcinoma 755 (subcutaneous) in B6D2F1 (BDF1) mice
Conditions: endpoint: mean tumor weight, higher = larger tumour
Method in brief: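 Readout: T/C, i.e. treated-group measurement over vehicle-control measurement. Endpoint is survival or tumor size in tumor-bearing mice given compound.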

[1] = dose: 75.0 mg/kg/injection, schedule: Q01DX011 (ip), vehicle: carboxymethylcellulose (CMC)
[2] = dose: 30.0 mg/kg/injection, schedule: Q01DX011 (ip), vehicle: carboxymethylcellulose (CMC)
[3] = dose: 60.0 mg/kg/injection, schedule: Q01DX011 (ip), vehicle: carboxymethylcellulose (CMC)
[4] = dose: 240.0 mg/kg/injection, schedule: Q01DX011 (ip), vehicle: carboxymethylcellulose (CMC)
[5] = dose: 25.0 mg/kg/injection, schedule: Q01DX011 (ip), vehicle: methylcellulose (MC)
[6] = dose: 25.0 mg/kg/injection, schedule: Q01DX011 (ip), vehicle: other
[7] = dose: 100.0 mg/kg/injection, schedule: Q01DX011 (ip), vehicle: other
[8] = dose: 200.0 mg/kg/injection, schedule: Q01DX011 (ip), vehicle: saline
[9] = dose: 120.0 mg/kg/injection, schedule: Q01DX011 (ip), vehicle: carboxymethylcellulose (CMC)
[10] = dose: 125.0 mg/kg/injection, schedule: Q01DX011 (ip), vehicle: methylcellulose (MC)

With `CCN(CC)P(=O)(N1CC1)N1CC1` the T/C (dose: 0.5 mg/kg/injection, schedule: Q01DX011 (ip), vehicle: saline) was 60 % of control, the T/C (dose: 1.0 mg/kg/injection, schedule: Q01DX011 (ip), vehicle: saline) was 68 % of control and the T/C (dose: 2.0 mg/kg/injection, schedule: Q01DX011 (ip), vehicle: other) was 50 % of control. For the same molecule, the T/C (dose: 2.0 mg/kg/injection, schedule: Q01DX011 (ip), vehicle: saline) was 43 % of control and 47 % of control, the T/C (dose: 4.0 mg/kg/injection, schedule: Q01DX011 (ip), vehicle: other) was 26 % of control and the T/C (dose: 4.0 mg/kg/injection, schedule: Q01DX011 (ip), vehicle: saline) was 18 % of control and 39 % of control. The T/C (dose: 8.0 mg/kg/injection, schedule: Q01DX011 (ip), vehicle: other) was 14 % of control and the T/C (dose: 8.0 mg/kg/injection, schedule: Q01DX011 (ip), vehicle: saline) was 10 % of control.

For `CCCCCCCCCCCCCCCCC(C(=O)O)C(O)(CC(=O)O)C(=O)O` (stereo not given), the T/C (dose: 19.0 mg/kg/injection, schedule: Q01DX011 (ip), vehicle: carboxymethylcellulose (CMC)) was 96 % of control, the T/C (dose: 37.5 mg/kg/injection, schedule: Q01DX011 (ip), vehicle: carboxymethylcellulose (CMC)) was 49 % of control and the T/C [1] was 59 % of control.

In the case of `CCN(CC)CCOc1ccc(/C=N/Nc2nc3c(c(=O)n(C)c(=O)n3C)n2C)cc1`, the T/C [2] is reported as 94 % of control, the T/C [3] is reported as 113 % of control and the T/C [4] is reported as 102 % of control and 124 % of control.

`Clc1ncnc2c1ncn2C1CCCS1` (stereo not given) was tested, and the T/C [5] was 107 % of control.

In the case of `CC(Nc1ncnc2nc[nH]c12)C(=O)O` (stereo not given), the T/C (dose: 25.0 mg/kg/injection, schedule: Q01DX011 (ip), vehicle: saline) is reported as 114 % of control, the T/C (dose: 75.0 mg/kg/injection, schedule: Q01DX011 (ip), vehicle: saline) is reported as 86 % of control and the T/C (dose: 225.0 mg/kg/injection, schedule: Q01DX011 (ip), vehicle: saline) is reported as 20 % of control.

In the case of `NS(=O)(=O)c1nc2nc[nH]c2c(=O)[nH]1`, the T/C (dose: 25.0 mg/kg/injection, schedule: Q01DX011 (ip), vehicle: carboxymethylcellulose (CMC)) is reported as 66 % of control, the T/C [1] is reported as 78 % of control and the T/C (dose: 225.0 mg/kg/injection, schedule: Q01DX011 (ip), vehicle: carboxymethylcellulose (CMC)) is reported as 61 % of control.

In the case of `Oc1ccc2ccccc2c1N=Nc1ccc(Cl)cc1`, the T/C (dose: 3.1 mg/kg/injection, schedule: Q01DX011 (ip), vehicle: other) is reported as 15 % of control, the T/C (dose: 6.25 mg/kg/injection, schedule: Q01DX011 (ip), vehicle: other) is reported as 108 % of control and the T/C (dose: 12.5 mg/kg/injection, schedule: Q01DX011 (ip), vehicle: other) is reported as 91 % of control and 84 % of control. For the same molecule, the T/C [6] was 56 % of control and 62 % of control, the T/C (dose: 50.0 mg/kg/injection, schedule: Q01DX011 (ip), vehicle: carboxymethylcellulose (CMC)) was 50 % of control and the T/C (dose: 100.0 mg/kg/injection, schedule: Q01DX011 (ip), vehicle: carboxymethylcellulose (CMC)) was 40 % of control. The T/C [7] was 24 % of control and 49 % of control, the T/C (dose: 100.0 mg/kg/injection, schedule: Q01DX011 (ip), vehicle: saline) was 81 % of control and the T/C (dose: 200.0 mg/kg/injection, schedule: Q01DX011 (ip), vehicle: carboxymethylcellulose (CMC)) was 34 % of control. For the same molecule, the T/C (dose: 200.0 mg/kg/injection, schedule: Q01DX011 (ip), vehicle: other) was 25 % of control, the T/C [8] was 38 % of control and the T/C (dose: 400.0 mg/kg/injection, schedule: Q01DX011 (ip), vehicle: carboxymethylcellulose (CMC)) was 36 % of control. For the same molecule, the T/C (dose: 400.0 mg/kg/injection, schedule: Q01DX011 (ip), vehicle: other) was 14 % of control and 24 % of control, the T/C (dose: 400.0 mg/kg/injection, schedule: Q01DX011 (ip), vehicle: saline) was 28 % of control and the T/C (dose: 800.0 mg/kg/injection, schedule: Q01DX011 (ip), vehicle: carboxymethylcellulose (CMC)) was 16 % of control. For the same molecule, the T/C (dose: 800.0 mg/kg/injection, schedule: Q01DX011 (ip), vehicle: other) was 6 % of control and the T/C (dose: 1200.0 mg/kg/injection, schedule: Q01DX011 (ip), vehicle: other) was 9 % of control.

In the case of `Nc1nc2c(nc(I)n2C2OC(CO)C(O)C2O)c(=O)[nH]1` (stereo not given), the T/C [2] is reported as 94 % of control, the T/C [3] is reported as 87 % of control and the T/C [9] is reported as 26 % of control. The T/C [4] was 40 % of control.

In the case of `CCNS(=O)(=O)c1ncnc2nc[nH]c12`, the T/C (dose: 6.0 mg/kg/injection, schedule: Q01DX011 (ip), vehicle: other) is reported as 94 % of control, the T/C (dose: 6.2 mg/kg/injection, schedule: Q01DX011 (ip), vehicle: methylcellulose (MC)) is reported as 66 % of control and the T/C (dose: 12.0 mg/kg/injection, schedule: Q01DX011 (ip), vehicle: other) is reported as 32 % of control. For the same molecule, the T/C (dose: 12.5 mg/kg/injection, schedule: Q01DX011 (ip), vehicle: methylcellulose (MC)) was 36 % of control, the T/C [5] was 7 % of control and 10 % of control and the T/C [6] was 15 % of control. The T/C (dose: 50.0 mg/kg/injection, schedule: Q01DX011 (ip), vehicle: other) was 5 % of control, the T/C [7] was 10 % of control and the T/C (dose: 150.0 mg/kg/injection, schedule: Q01DX011 (ip), vehicle: other) was 5 % of control.

For `Cc1cnc(SCc2ccc(Cl)cc2)nc1Nc1ccc(Cl)cc1Cl`, the T/C (dose: 31.0 mg/kg/injection, schedule: Q01DX011 (ip), vehicle: methylcellulose (MC)) was 97 % of control, the T/C (dose: 62.0 mg/kg/injection, schedule: Q01DX011 (ip), vehicle: methylcellulose (MC)) was 69 % of control and the T/C [10] was 65 % of control. For the same molecule, the T/C (dose: 250.0 mg/kg/injection, schedule: Q01DX011 (ip), vehicle: methylcellulose (MC)) was 65 % of control.

`CC(=O)OCC1OC(n2cnc3c(Cl)nc(N)nc32)C(OC(C)=O)C1OC(C)=O` (stereo not given) was tested, and the T/C [2] was 114 % of control, the T/C [3] was 118 % of control and the T/C [9] was 78 % of control. The T/C [4] was 72 % of control.

`O=c1[nH]cnc2n[nH]nc12` was tested, and the T/C (dose: 125.0 mg/kg/injection, schedule: Q01DX011 (oral), vehicle: methylcellulose (MC)) was 55 % of control, the T/C (dose: 250.0 mg/kg/injection, schedule: Q02DX006 (ip), vehicle: methylcellulose (MC)) was 5 % of control and the T/C (dose: 250.0 mg/kg/injection, schedule: Q03DX004 (ip), vehicle: methylcellulose (MC)) was 21 % of control.

`NC(=S)n1cccn1` was tested, and the T/C (dose: 20.0 mg/kg/injection, schedule: Q01DX011 (ip), vehicle: methylcellulose (MC)) was 91 % of control, the T/C (dose: 40.0 mg/kg/injection, schedule: Q01DX011 (ip), vehicle: methylcellulose (MC)) was 85 % of control and the T/C (dose: 80.0 mg/kg/injection, schedule: Q01DX011 (ip), vehicle: methylcellulose (MC)) was 44 % of control. For the same molecule, the T/C (dose: 160.0 mg/kg/injection, schedule: Q01DX011 (ip), vehicle: methylcellulose (MC)) was 8 % of control.

In the case of `CC1CCc2ccccc2N1C(=O)CCCl` (stereo not given), the T/C [5] is reported as 48 % of control, the T/C (dose: 75.0 mg/kg/injection, schedule: Q01DX011 (ip), vehicle: methylcellulose (MC)) is reported as 82 % of control and the T/C (dose: 225.0 mg/kg/injection, schedule: Q01DX011 (ip), vehicle: methylcellulose (MC)) is reported as 50 % of control.

`CCC(C)Cn1cnc2c(=S)nc(N)[nH]c21` (stereo not given) was tested, and the T/C (dose: 15.0 mg/kg/injection, schedule: Q01DX011 (ip), vehicle: methylcellulose (MC)) was 2 % of control.

`CN(C)C1C(=O)C(C(=O)NCNC(CCS(C)=O)C(=O)O)=C(O)C2(O)C(=O)C3=C(O)c4c(O)cccc4C(C)(O)C3CC12` (stereo not given) was tested, and the T/C [8] was 68 % of control.

`Cn1c(=O)c2[nH]c(CCl)nc2n(C)c1=O` was tested, and the T/C [5] was 86 % of control.

With `Cc1ccc(N=Nc2c(S(=O)(=O)O)cc3cc(NC(=O)Nc4ccc5c(O)c(N=Nc6ccc7cc(S(=O)(=O)O)ccc7c6)c(S(=O)(=O)O)cc5c4)ccc3c2O)cc1` the T/C (dose: 45.0 mg/kg/injection, schedule: Q01DX011 (ip), vehicle: methylcellulose (MC)) was 66 % of control, the T/C (dose: 65.0 mg/kg/injection, schedule: Q01DX011 (ip), vehicle: methylcellulose (MC)) was 42 % of control and the T/C (dose: 150.0 mg/kg/injection, schedule: Q01DX011 (ip), vehicle: methylcellulose (MC)) was 30 % of control.

`Nc1ccccc1N` was tested, and the T/C (dose: 31.25 mg/kg/injection, schedule: Q01DX011 (ip), vehicle: methylcellulose (MC)) was 80 % of control, the T/C (dose: 62.5 mg/kg/injection, schedule: Q01DX011 (ip), vehicle: methylcellulose (MC)) was 40 % of control and the T/C [10] was 55 % of control.

`CCCCCCCCSc1ncnc2c1ncn2CC` was tested, and the T/C (dose: 150.0 mg/kg/injection, schedule: Q01DX011 (ip), vehicle: saline) was 58 % of control and the T/C (dose: 300.0 mg/kg/injection, schedule: Q01DX011 (ip), vehicle: saline) was 17 % of control.

In the case of `CCC(=O)O[C@H]1CC[C@H]2[C@@H]3CCC4=CC(=O)CC[C@]4(C)[C@H]3CC[C@]12C`, the T/C (dose: 125.0 mg/kg/injection, schedule: Q01DX011 (sc), vehicle: steriod suspending solution) is reported as 101 % of control and 104 % of control, the T/C (dose: 400.0 mg/kg/injection, schedule: Q01DX011 (sc), vehicle: steriod suspending solution) is reported as 69 % of control and the T/C (dose: 666.66 mg/kg/injection, schedule: Q01DX011 (sc), vehicle: steriod suspending solution) is reported as 61 % of control.

With `Cn1cnc2c(C(F)(F)F)nc(Cl)nc21` the T/C (dose: 30.0 mg/kg/injection, schedule: Q01DX011 (ip), vehicle: saline) was 98 % of control and the T/C (dose: 60.0 mg/kg/injection, schedule: Q01DX011 (ip), vehicle: saline) was 91 % of control.
